Source: patent publication US8389743B2, “Histamine-3 receptor antagonists” (Pfizer Inc., priority 2005, dated 2013)
Counter-ions that a name gives are not always drawn.

Biological target: T1, rat histamine H3 receptors (Rattus norvegicus, UniProt Q9QYN8)
T1 construct: Frozen rat frontal brain or frozen human post-mortem frontal brain is homogenized; from tissue; host or cells: rat frontal brain membranes
Test: Rat Histamine H3 Receptor Binding
Settings: rat frontal brain membranes; radioligand 3H-N-methyl-histamine 1 nM; 1 hour incubation; read-out: rH3 Ki
Procedure: The in vitro affinity of the compounds in the present invention at the rat or human histamine H3 receptors can be determined according to the following procedure. Frozen rat frontal brain or frozen human post-mortem frontal brain is homogenized in 20 volumes of cold 50 mM Tris HCl containing 2 mM MgCl2 (pH to 7.4 at 4° C.). The homogenate is then centrifuged at 45,000 G for 10 minutes. The supernatant is decanted and the membrane pellet resuspended by Polytron in cold 50 mM Tris HCl containing 2 mM MgCl2 (pH to 7.4 at 4° C.) and centrifuged again. The final pellet is resuspended in 50 mM Tris HCl containing 2 mM MgCl2 (pH to 7.4 at 25° C.) at a concentration of 12 mg/mL. Dilutions of compounds are made in 10% DMSO/50 mM Tris buffer (pH 7.4) (at 10× final concentration, so that the final DMSO concentration is 1%). Incubations are initiated by the addition of membranes (200 microliters) to 96 well V-bottom polypropylene plates containing 25 microliters of drug dilutions and 25 microliters of radioligand (1 nM final concentration 3H—N-methyl-histamine). After a 1 hour incubation, assay samples are rapidly filtered through Whatman GF/B filters and rinsed with ice-cold 50 mM Tris buffer (pH 7.4) using a Skatron cell harvester. Radioactivity is quantified using a BetaPlate scintillation counter. The percent inhibition of specific binding can then be calculated.

T1 sequence (Q9QYN8 whole entry): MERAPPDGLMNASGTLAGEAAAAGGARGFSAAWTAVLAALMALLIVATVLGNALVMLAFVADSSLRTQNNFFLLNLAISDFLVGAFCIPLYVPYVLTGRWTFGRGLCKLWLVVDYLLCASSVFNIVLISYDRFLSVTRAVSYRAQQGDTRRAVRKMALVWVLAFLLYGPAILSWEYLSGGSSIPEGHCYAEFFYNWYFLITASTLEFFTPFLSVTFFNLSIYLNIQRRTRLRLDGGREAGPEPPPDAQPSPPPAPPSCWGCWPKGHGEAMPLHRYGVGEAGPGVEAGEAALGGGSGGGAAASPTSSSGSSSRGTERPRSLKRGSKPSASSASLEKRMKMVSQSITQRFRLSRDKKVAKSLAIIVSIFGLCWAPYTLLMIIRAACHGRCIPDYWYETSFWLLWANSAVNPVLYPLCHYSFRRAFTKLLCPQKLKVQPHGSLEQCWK

Compared with `CC(C)CNC(=O)C1CC(F)(c2cc(Cl)c(CN3CCCC3)cc2F)C1` (mixture of isomers) [Example 11, 3-(5-Chloro-2-fluoro-4-pyrrolidin-1-ylmethyl-phenyl)-3-fluoro-cyclobutanecarboxylic acid isobutyl-amide], `CC(C)CNC(=O)C1CC(F)(c2ccc(CN3CCCC3)c(F)c2)C1` (single isomer, unassigned) [Example 55, 3-Fluoro-3-(3-fluoro-4-pyrrolidin-1-ylmethyl-phenyl)-cyclobutanecarboxylic acid isobutyl-amide] is 2.4-fold lower in Ki: 24.1 nM for the first, 10.1 nM for the second.

First: CN(CC1CC1)C(=O)C1CC(F)(c2ccc(CN3CCCC3)c(Cl)c2)C1 (mixture of isomers) [Example 50, 3-(3-Chloro-4-pyrrolidin-1-ylmethyl-phenyl)-3-fluoro-cyclobutanecarboxylic acid cyclopropylmethyl-methyl-amide]
Second: O=C(NCC1CC1)C1CC(F)(c2ccc(CN3CCCC3)c(Cl)c2)C1 (stereo not drawn) [Example 46, 3-(3-Chloro-4-pyrrolidin-1-ylmethyl-phenyl)-3-fluoro-cyclobutanecarboxylic acid cyclopropylmethyl-amide]
The Ki of the first is 3-fold higher: 32.3 nM for the first, 10.9 nM for the second. The second binds more tightly here.

`O=C(C1CC(F)(c2ccc(CN3CCCC3)c(F)c2)C1)N1CCCC1` (stereo not drawn) [Example 9, N-{2-fluoro-4-[1-fluoro-3-(pyrrolidin-1-ylcarbonyl)cyclobutyl]benzyl}-pyrrolidine hydrochloride] and `CCNC(=O)C1CC(F)(c2ccc(CN3CCCC3)c(F)c2)C1` (stereo not drawn) [Example 16, 3-Fluoro-3-(3-fluoro-4-pyrrolidin-1-ylmethyl-phenyl)-cyclobutanecarboxylic acid ethylamide] are within 1.5-fold of each other in Ki: 18.9 nM for the first, 20.7 nM for the second.

Going from `CCNC(=O)C1CC(c2ccc(CN3CCCC3)c(F)c2)C1` (stereo not drawn) [Example 13, 3-(3-Fluoro-4-pyrrolidin-1-ylmethyl-phenyl)-cyclobutanecarboxylic acid ethylamide] to `CCN(C)C(=O)C1CC(F)(c2ccc(CN3CCCC3)c(F)c2)C1` (stereo not drawn) [Example 23, 3-Fluoro-3-(3-fluoro-4-pyrrolidin-1-ylmethyl-phenyl)-cyclobutanecarboxylic acid ethyl-methyl-amide], the Ki rises from 10.1 nM to 28.8 nM (2.9-fold). The first binds more tightly here.

Work on `CCNC(=O)C1CC(F)(c2ccc(CN3CCC[C@@H]3C)c(F)c2)C1` (stereo partly drawn) [Example 59, 3-Fluoro-3-[3-fluoro-4-((S)-2-methyl-pyrrolidin-1-ylmethyl)-phenyl]-cyclobutanecarboxylic acid ethylamide] yielded a Ki of 21.4 nM.
